Experimental findings from patent US20150175530A1, “ANTIBACTERIAL AGENTS” (priority 2012, published 2015) are described below.

In brackets after ≈: the same amount, converted by molar mass. Like-named read-outs stand apart in the source and are kept apart here.

Data set [1] deals with 3 P. aeruginosa strains (APAE001, APAE002, APAE006). Put plainly: Protein binding: fold change in MIC in the presence of 2% HSA and 0.05% AGP, Geomean of 3 strains. The data set is classed as cell-based, Pseudomonas aeruginosa. The settings on record: MIC in the presence of 2% HSA and 0.05% AGP divided by MIC in the absence; Geomean of 3 P. aeruginosa strains (APAE001, APAE002, APAE006). As to the method: The effect of human serum albumin (HSA) and α-1-acid glycoprotein (AGP) from human plasma, which are known to nonspecifically bind to certain antibiotics and thereby reduce their activity (Banéres-Roquet et al. 2009 “Use of a Surface Plasmon Resonance Method to Investigate Antibiotic and Plasma Protein Interactions” Antimicrob. Agents and Chemother. 53(4):1528-1531), was assessed against 3 P. aeruginosa strains (APAE001, APAE002, APAE006). APAE001 is Pseudomonas aeruginosa ATCC27853; APAE002 is a wildtype lab strain of Pseudomonas aeruginosa known as PAM1020 or PA01. APAE006 is a strain of […]/PA01 with efflux deletions: delta mexAB-oprM::CM delta CD-oprJ::Gm delta mexEF-oprN::omega Hg. Lomovskaya, 0 et al. 1999. Use of a Genetic Approach To Evaluate the Consequences of Inhibition of Efflux Pumps in P aeruginosa. Antimicrob. Agents Chemother. 43: 1340-1346.
The standard procedure described in Susceptibility Testing was utilized with one adjustment, specifically 2% HSA and 0.05% AGP were added to the cation adjusted Mueller-Hinton Broth. The MIC for each strain of interest was then assessed in the presence and absence of HSA/AGP. Following MIC determination, the fold change in MIC was determined for each individual strain by dividing the MIC in the presence of HSA/AGP by the MIC in the absence of HSA/AGP. The protein binding Geomean was then calculated using these 3 values.

Data set [2] deals with bacterial isolates (clinical isolates and ATCC quality control strains). Briefly: Minimum Inhibitory Concentrations (MICs) by broth microdilution (CLSI susceptibility testing). It is filed as cell-based. The settings on record: for Minimum Inhibitory Concentrations (MICs) APAE001: APAE001 is Pseudomonas aeruginosa ATCC27853. As to the method: Bacterial isolates were cultivated from −70° C. frozen stocks by overnight passages at 35° C. in ambient air on Mueller-Hinton agar (Beckton Dickinson, Franklin Lakes, N.J.). Clinical isolates tested were obtained from various geographically diverse hospitals in the US and abroad (Focus Diagnostics, Herndon, Va. and JMI, North Liberty, Iowa). Quality control strains were from the American Type Culture Collection (ATCC; Rockville, Md.).
Minimum Inhibitory Concentrations (MICs) were determined by the broth microdilution method in accordance with the Clinical and Laboratory Standards Institute (CLSI) guidelines. In brief, organism suspensions were adjusted to a 0.5 McFarland standard to yield a final inoculum between 3×10^5 and 7×10^5 colony-forming units (CFU)/mL. Drug dilutions and inocula were made in sterile, cation adjusted Mueller-Hinton Broth (Beckton Dickinson). An inoculum volume of 100 μL was added to wells containing 100 μL of broth with 2-fold serial dilutions of drug. All inoculated microdilution trays were incubated in ambient air at 35° C. for 18-24 h. Following incubation, the lowest concentration of the drug that prevented visible growth (OD600 nm<0.05) was recorded as the MIC. Performance of the assay was monitored by the use of laboratory quality-control strains and levofloxacin, a compound with a defined MIC spectrum, in accordance with CLSI guidelines.

Setting [3] is: APAE002 is a wildtype lab strain of Pseudomonas aeruginosa known as PAM1020 or PA01, broth microdilution.
Where [4] appears, read: APAE1096 is a clinical isolate, broth microdilution.
The mark [5] stands for this setting: APAE1096 is a clinical isolate, broth microdilution, read-out: Minimum Inhibitory Concentrations (MICs) APAE1096.
The mark [6] stands for this setting: Pseudomonas aeruginosa, APAE002 is a wildtype lab strain of Pseudomonas aeruginosa known as PAM1020 or PA01, broth microdilution, read-out: Minimum Inhibitory Concentrations (MICs) APAE002.
Setting [7] is: Pseudomonas aeruginosa, ATCC27853, APAE001 is Pseudomonas aeruginosa ATCC27853, broth microdilution, read-out: Minimum Inhibitory Concentrations (MICs) APAE001.

Consider `CC(C)(N)[C@H](NC(=O)c1ccc(C#CC#CC2CC(O)[C@@H]2CO)cc1)C(=O)NO` (single isomer, unassigned) [Compound 30B], for which the “Protein Binding PB (Geomean of fold change in MIC)” value in data set [1] was 3.2. In addition, the “Minimum Inhibitory Concentrations (MICs) APAE001” value in data set [2] (broth microdilution) is “A (A = MIC's of 1.0 μg/mL or less)”. Also, the “Minimum Inhibitory Concentrations (MICs) APAE002” value in data set [2] (setting [3]) was “A (A = MIC's of 1.0 μg/mL or less)”. Besides, in data set [2] (setting [4]), the “Minimum Inhibitory Concentrations (MICs) APAE1096” value is reported as “B (B = MIC's of greater than 1.0 μg/mL to 8.0 μg/mL)”.

Take `CNC(C)(C)[C@H](NC(=O)c1ccc(C#CC#C[C@H](C)O)cc1)C(=O)NO` [Compound 16, N—((S)-1-(hydroxyamino)-3-methyl-3-(methylamino)-1-oxobutan-2-yl)-4-((S)-5-hydroxyhexa-1,3-diynyl)benzamide]: the “Protein Binding PB (Geomean of fold change in MIC)” value in data set [1] came out at 3.6. The MIC in data set [2] (setting [5]) is 1 to 8 µg/mL (≈ 2.8 to 22.4 µM); in data set [2] (setting [6]), less than 1 µg/mL; in data set [2] (setting [7]) it was less than 1 µg/mL.

On to `CC(C)(N)[C@H](NC(=O)c1ccc(C#CC#CC2(O)CCC(CO)C2)cc1)C(=O)NO` (stereo partly drawn) [Compound 57, N—((S)-3-amino-1-(hydroxyamino)-3-methyl-1-oxobutan-2-yl)-4-((1-hydroxy-3-(hydroxymethyl)cyclopentyl)buta-1,3-diyn-1-yl)benzamide], for which the “Protein Binding PB (Geomean of fold change in MIC)” value in data set [1] came out at 1.6. For the same compound, the values for the MIC in data set [2] (setting [5]), in data set [2] (setting [6]) and in data set [2] (setting [7]) were 1 to 8 µg/mL (≈ 2.42 to 19.3 µM), less than 1 µg/mL and less than 1 µg/mL, respectively.

Take `CN[C@H](C)[C@H](NC(=O)c1ccc(C#CC#CCCO)cc1)C(=O)NO` [Compound 48, N-((2S,3R)-1-(hydroxyamino)-3-(methylamino)-1-oxobutan-2-yl)-4-(6-hydroxyhexa-1,3-diyn-1-yl)benzamide]: the “Protein Binding PB (Geomean of fold change in MIC)” value in data set [1] is listed as 2.0. Further, the MIC is 1 to 8 µg/mL (≈ 2.91 to 23.3 µM) in data set [2] (setting [5]), less than 1 µg/mL in data set [2] (setting [6]) and less than 1 µg/mL in data set [2] (setting [7]).

With `CC(C)(N)[C@H](NC(=O)c1ccc(C#CC#CCO)cc1)C(=O)NO` [Compound 1, (S)—N-(3-amino-1-(hydroxyamino)-3-methyl-1-oxobutan-2-yl)-4-(5-hydroxypenta-1,3-diynyl)benzamide], the “Protein Binding PB (Geomean of fold change in MIC)” value in data set [1] came to 4.1. Besides, the MIC in data set [2] (Pseudomonas aeruginosa, ATCC27853, read-out: Minimum Inhibitory Concentrations (MICs) APAE001) is less than 1 µg/mL; in data set [2] (Pseudomonas aeruginosa, read-out: Minimum Inhibitory Concentrations (MICs) APAE002) it was less than 1 µg/mL; in data set [2] (read-out: Minimum Inhibitory Concentrations (MICs) APAE1096) it was less than 1 µg/mL.

Take `CC(C)(N)[C@H](NC(=O)c1ccc(C#CC#C[C@H]2C[C@@](O)(CO)C2)cc1)C(=O)NO` [Compound 29, N—((S)-3-amino-1-(hydroxyamino)-3-methyl-1-oxobutan-2-yl)-4-(((1R,3S)-3-hydroxy-3-(hydroxymethyl)cyclobutyl)buta-1,3-diynyl)benzamide]: the “Protein Binding PB (Geomean of fold change in MIC)” value in data set [1] is listed as 2.9. Besides, the MIC in data set [2] (setting [5]) is 1 to 8 µg/mL (≈ 2.5 to 20 µM); in data set [2] (setting [6]), less than 1 µg/mL; in data set [2] (setting [7]), less than 1 µg/mL.

On to `C[C@@H](O)C#CC#Cc1ccc(C(=O)N[C@H](C(=O)NO)C(C)(C)N)cc1` [Compound 15, N—((S)-3-amino-1-(hydroxyamino)-3-methyl-1-oxobutan-2-yl)-4-((R)-5-hydroxyhexa-1,3-diynyl)benzamide], for which the “Protein Binding PB (Geomean of fold change in MIC)” value in data set [1] worked out at 2.3. The MIC in data set [2] (setting [5]), in data set [2] (setting [6]) and in data set [2] (setting [7]) was less than 1 µg/mL throughout.

`CC(C)(N)[C@H](NC(=O)c1ccc(C#C/C=C/CO)cc1)C(=O)NO` [Compound 3, (S,E)-N-(3-amino-1-(hydroxyamino)-3-methyl-1-oxobutan-2-yl)-4-(5-hydroxypent-3-en-1-ynyl)benzamide]: the “Protein Binding PB (Geomean of fold change in MIC)” value in data set [1] was 1.3. In addition, the MIC in data set [2] (setting [5]) was 1 to 8 µg/mL (≈ 3.02 to 24.1 µM); in data set [2] (setting [6]), less than 1 µg/mL; in data set [2] (setting [7]) it was less than 1 µg/mL.

For the compound `CC(C)(N)[C@H](NC(=O)c1ccc(C#CC#CCCO)cc1)C(=O)NO` [Compound 7, (S)—N-(3-amino-1-(hydroxyamino)-3-methyl-1-oxobutan-2-yl)-4-(6-hydroxyhexa-1,3-diynyl)benzamide], the “Protein Binding PB (Geomean of fold change in MIC)” value in data set [1] turned out to be 2.5. For the same compound, the MIC in data set [2] (setting [5]), in data set [2] (setting [6]) and in data set [2] (setting [7]) was less than 1 µg/mL in each case.

In the case of `CC(C)(N)[C@H](NC(=O)c1ccc(C#CC#CC2C[C@@H](O)[C@H]2CO)cc1)C(=O)NO` (single isomer, unassigned) [Compound 31A], in data set [1], the “Protein Binding PB (Geomean of fold change in MIC)” value is given as 2.5. For the same compound, the “Minimum Inhibitory Concentrations (MICs) APAE1096” value in data set [2] (setting [4]) is reported as “C (C = MIC's of greater than 8.0 μg/mL to 16.0 μg/mL)”. The MIC in data set [2] (setting [6]) and in data set [2] (setting [7]) was 1 to 8 µg/mL (≈ 2.5 to 20 µM) in each case.

`C[C@@H](O)[C@H](NC(=O)c1ccc(C#CC#CCCO)cc1)C(=O)NO` [Compound 38, N-((2S,3R)-3-hydroxy-1-(hydroxyamino)-1-oxobutan-2-yl)-4-(6-hydroxyhexa-1,3-diyn-1-yl)benzamide]: in data set [1], the “Protein Binding PB (Geomean of fold change in MIC)” value is recorded as 2. Further, the MIC in data set [2] (setting [5]) is 1 to 8 µg/mL (≈ 3.03 to 24.2 µM); in data set [2] (setting [6]) it was less than 1 µg/mL; in data set [2] (setting [7]), 1 to 8 µg/mL (≈ 3.03 to 24.2 µM).

Take `C[C@H](O)C#CC#Cc1ccc(C(=O)N[C@H](C(=O)NO)C(C)(C)O)cc1` [Compound 40, N—((S)-3-hydroxy-1-(hydroxyamino)-3-methyl-1-oxobutan-2-yl)-4-((S)-5-hydroxyhexa-1,3-diyn-1-yl)benzamide]: in data set [1], the “Protein Binding PB (Geomean of fold change in MIC)” value was determined as 2.6. The MIC was 1 to 8 µg/mL (≈ 2.9 to 23.2 µM) in data set [2] (setting [5]), less than 1 µg/mL in data set [2] (setting [6]) and 1 to 8 µg/mL (≈ 2.9 to 23.2 µM) in data set [2] (setting [7]).

For `CC(C)(N)[C@H](NC(=O)c1ccc(C#CC#CC2CC(O)[C@H]2CO)cc1)C(=O)NO` (single isomer, unassigned) [Compound 31B], in data set [1], the “Protein Binding PB (Geomean of fold change in MIC)” value was 3.2. The “Minimum Inhibitory Concentrations (MICs) APAE001” value in data set [2] (broth microdilution) is on record as “A (A = MIC's of 1.0 μg/mL or less)”. Moreover, the “Minimum Inhibitory Concentrations (MICs) APAE002” value in data set [2] (setting [3]) was “A (A = MIC's of 1.0 μg/mL or less)”. Further, the “Minimum Inhibitory Concentrations (MICs) APAE1096” value in data set [2] (setting [4]) is recorded as “B (B = MIC's of greater than 1.0 μg/mL to 8.0 μg/mL)”.

As to `CC(C#CC#Cc1ccc(C(=O)N[C@H](C(=O)NO)C(C)(C)N)cc1)CO` (stereo partly drawn) [Compound 39, N—((S)-3-amino-1-(hydroxyamino)-3-methyl-1-oxobutan-2-yl)-4-(6-hydroxy-5-methylhexa-1,3-diyn-1-yl)benzamide], the “Protein Binding PB (Geomean of fold change in MIC)” value in data set [1] came to 2.8. In addition, the MIC is 1 to 8 µg/mL (≈ 2.8 to 22.4 µM) in data set [2] (setting [5]), less than 1 µg/mL in data set [2] (setting [6]) and less than 1 µg/mL in data set [2] (setting [7]).

As to `CC(C)(N)[C@H](NC(=O)c1ccc(C#CC#CC(O)CCO)cc1)C(=O)NO` (stereo partly drawn) [Compound 46, N—((S)-3-amino-1-(hydroxyamino)-3-methyl-1-oxobutan-2-yl)-4-(5,7-dihydroxyhepta-1,3-diyn-1-yl)benzamide], the MIC in data set [2] (setting [5]) was 1 to 8 µg/mL (≈ 2.68 to 21.4 µM); in data set [2] (setting [6]), less than 1 µg/mL; in data set [2] (setting [7]) it was less than 1 µg/mL.

Consider `CC(C#CC#Cc1ccc(C(=O)N[C@H](C(=O)NO)C(C)(C)N)cc1)C(O)CO` (single isomer, unassigned) [Compound 20B], for which the “Protein Binding PB (Geomean of fold change in MIC)” value in data set [1] came to 1.0.

Regarding `CC(C)(O)[C@H](NC(=O)c1ccc(C#CC#CCO)cc1)C(=O)NO` [Compound 4, (S)—N-(3-hydroxy-1-(hydroxyamino)-3-methyl-1-oxobutan-2-yl)-4-(5-hydroxypenta-1,3-diynyl)benzamide], the values for the MIC in data set [2] (setting [5]), in data set [2] (setting [6]) and in data set [2] (setting [7]) were 1 to 8 µg/mL (≈ 3.03 to 24.2 µM), less than 1 µg/mL and less than 1 µg/mL, respectively.

Regarding `CC(C)(O)[C@H](NC(=O)c1ccc(C#CC#CC(O)CO)cc1)C(=O)NO` (stereo partly drawn) [Compound 60, 4-(5,6-dihydroxyhexa-1,3-diyn-1-yl)-N—((S)-3-hydroxy-1-(hydroxyamino)-3-methyl-1-oxobutan-2-yl)benzamide], the MIC in data set [2] (setting [7]) was 1 to 8 µg/mL (≈ 2.77 to 22.2 µM).
